According to patent US4409238A, “Insecticides and insecticidal compositions” (Kuraray Co., Ltd., priority 1977, dated 1983):

Test system: houseflies (Musca domestica)
Assay: Mortality test against houseflies by topical application method (Test Example 1)
Format: in vivo
Details: 1 μg/fly, female adult houseflies, 24 hours, 25° C.
Protocol: Each test compound was accurately weighed and a 1% solution and a 0.1% solution of the sample in acetone were prepared. A 1 μl portion of either of the above solutions was micropipetted onto the thoracic dorsal part of each female adult housefly (Musca domestica) under ether anaesthesia and the fly was released in a high-walled dish together with feed. The dish was covered with a metal-wire net and maintained at 25° C. After 24 hours, the test flies were inspected for deaths and the mortality (%) was calculated. Thirty test flies were used per concentration group.

Compound | Mortality (%) 1 μg/fly [%]
CC(C)C(CC=C(Cl)Cl)C(=O)OCc1cccc(Oc2ccccc2)c1 (stereo not drawn) [Compound [5], 3-Phenoxybenzyl α-(3,3-dichloroallyl)isovalerate] | 100
C#CC(OC(=O)C(CC=C(Cl)Cl)C(C)C)c1cccc(Oc2ccccc2)c1 (stereo not drawn) [Compound [7], α-Ethynyl-3-phenoxybenzyl α-(3,3-dichloroallyl)isovalerate] | 90
CC(C)C(CC=C(Cl)Cl)C(=O)OC(C#N)c1cccc(Oc2ccccc2)c1 (stereo not drawn) [Compound [6], α-Cyano-3-phenoxybenzyl α-(3,3-dichloroallyl)isovalerate] | 100
CC(C)(CC(=O)OCc1cccc(Oc2ccccc2)c1)C(Cl)C=C(Cl)Cl (stereo not drawn) [Compound [17], 3-Phenoxybenzyl β-(1,3,3-trichloroallyl)isovalerate] | 100
CC(C)C(CC=C(Br)Br)C(=O)OC(C#N)c1cccc(Oc2ccccc2)c1 (stereo not drawn) [Compound [9], α-Cyano-3-phenoxybenzyl α-(3,3-dibromoallyl)isovalerate] | 100

Same assay, conditions: 10 μg/fly, female adult houseflies, 24 hours, 25° C.

Compound | Mortality (%) 10 μg/fly [%]
CC(C)(CC(=O)OC(C#N)c1cccc(Oc2ccccc2)c1)C(Cl)C=C(Cl)Cl (stereo not drawn) [Compound [18], α-Cyano-3-phenoxybenzyl β-(1,3,3-trichloroallyl)isovalerate] | 100
C#CC(OC(=O)CC(C)(C)C(Cl)C=C(Cl)Cl)c1cccc(Oc2ccccc2)c1 (stereo not drawn) [Compound [19], α-Ethynyl-3-phenoxybenzyl β-(1,3,3-trichloroallyl)isovalerate] | 100
CC(C)C(CC=C(Cl)Cl)C(=O)OCc1cccc(Oc2ccccc2)c1 (stereo not drawn) [Compound [5], 3-Phenoxybenzyl α-(3,3-dichloroallyl)isovalerate] | 100
C#CC(OC(=O)C(CC=C(Cl)Cl)C(C)C)c1cccc(Oc2ccccc2)c1 (stereo not drawn) [Compound [7], α-Ethynyl-3-phenoxybenzyl α-(3,3-dichloroallyl)isovalerate] | 100
CC(C)C(CC=C(Cl)Cl)C(=O)OC(C#N)c1cccc(Oc2ccccc2)c1 (stereo not drawn) [Compound [6], α-Cyano-3-phenoxybenzyl α-(3,3-dichloroallyl)isovalerate] | 100
CC(C)(CC(=O)OCc1cccc(Oc2ccccc2)c1)C(Cl)C=C(Cl)Cl (stereo not drawn) [Compound [17], 3-Phenoxybenzyl β-(1,3,3-trichloroallyl)isovalerate] | 100
CC(C)C(CC=C(Br)Br)C(=O)OC(C#N)c1cccc(Oc2ccccc2)c1 (stereo not drawn) [Compound [9], α-Cyano-3-phenoxybenzyl α-(3,3-dibromoallyl)isovalerate] | 100

Test system: green rice leafhoppers (Nephotettix cincticeps)
Assay: Mortality test against green rice leafhoppers by topical application method (Test Example 2)
Format: in vivo
Details: 0.1% solution in acetone, female adults, 24 hours, 25° C.
Protocol: Each test compound was accurately weighed and an 0.1% solution in acetone was prepared. Female adults of green rice leafhopper (Nephotettix cincticeps) were anaesthetized with carbon dioxide gas and 0.5 µl of the above solution was micropipetted onto the thoracic abdominal part of each leafhopper. Then, the test leafhoppers were kept at 25° C. with access to rice plant seedlings. Each group comprised 15 green rice leafhoppers. After 24 hours, the leafhoppers were inspected for deaths and the mortality (%) was calculated for each compound.

Compound | mortality at 0.1 % [%]
CC(C)C(C=C(Cl)Cl)C(=O)OCc1cccc(Oc2ccccc2)c1 (centres unmarked) [reference compound] | 40

Test system: cockroaches (Blattella germanica)
Assay: Mortality test against cockroaches by topical application method (Test Example 3)
Format: in vivo
Details: 1 μl of 1% solution in acetone, female cockroaches, 24 hours, 25° C.
Protocol: Each test compound was accurately weighed and made in a 1% solution in acetone. Then, 1 μl of the above solution was micropipetted onto the abdominal part of each female cockroach (Blattella germanica) under ether anaesthesia. The roaches were released in a high-walled dish together with feed and, after the disk was covered with a metal wire net, same was maintained at 25° C. Fifteen roaches per group were employed. After 24 hours, the test roaches were inspected for deaths and the mortality (%) for each group was calculated.

Compound | mortality at 1 %, 0.01 mg [%]
C#CC(OC(=O)C(CC=C(Cl)Cl)C(C)C)c1cccc(Oc2ccccc2)c1 (stereo not drawn) [Compound [7], α-Ethynyl-3-phenoxybenzyl α-(3,3-dichloroallyl)isovalerate] | 80
CC(C)C(CC=C(Cl)Cl)C(=O)OC(C#N)c1cccc(Oc2ccccc2)c1 (stereo not drawn) [Compound [6], α-Cyano-3-phenoxybenzyl α-(3,3-dichloroallyl)isovalerate] | 100

Test system: not listed separately
Assay: Light stability test (Test Example 4)
Format: physicochemical
Details: direct sunlight between glass plates, 12° C., 4 hrs., relative to aluminum foil-covered control; read-out: Residue (%) Exposure time 4 hrs.
Protocol: Into 2.0 ml of acetone were dissolved 80 mg of each test compound. A 5 μl portion of the solution was taken and spread on a glass plate (Micro Standard Cover Glass, 18 m/m No. 1, 200 pcs, Matsunami Glass Ind., Ltd.) and the acetone was evaporated. Then, a similar glass plate was superimposed on the above plate in such a manner that the test liquid was sandwitched. The specimen was exposed to direct sunlight at an atmospheric temperature of 12° C. for a predetermined exposure time. As an unexposed control, a similar specimen was covered with an aluminum foil. The test liquid was washed away with 1.0 ml of methanol containing 0.04% of dioctyl phthalate as an internal reference and high-speed liquid chromatography was carried out on the washings to determine the residual amount of the test compound. The residue (%) was calculated with the value for the aluminum foil-covered control specimen as the standard.

Compound | remaining at 4 h [%]
CC(C)(CC(=O)OC(C#N)c1cccc(Oc2ccccc2)c1)C(Cl)C=C(Cl)Cl (stereo not drawn) [Compound [18], α-Cyano-3-phenoxybenzyl β-(1,3,3-trichloroallyl)isovalerate] | 98
C#CC(OC(=O)CC(C)(C)C(Cl)C=C(Cl)Cl)c1cccc(Oc2ccccc2)c1 (stereo not drawn) [Compound [19], α-Ethynyl-3-phenoxybenzyl β-(1,3,3-trichloroallyl)isovalerate] | 97
CC(C)C(CC=C(Cl)Cl)C(=O)OCc1cccc(Oc2ccccc2)c1 (stereo not drawn) [Compound [5], 3-Phenoxybenzyl α-(3,3-dichloroallyl)isovalerate] | 99
C#CC(OC(=O)C(CC=C(Cl)Cl)C(C)C)c1cccc(Oc2ccccc2)c1 (stereo not drawn) [Compound [7], α-Ethynyl-3-phenoxybenzyl α-(3,3-dichloroallyl)isovalerate] | 96
CC(C)C(CC=C(Cl)Cl)C(=O)OC(C#N)c1cccc(Oc2ccccc2)c1 (stereo not drawn) [Compound [6], α-Cyano-3-phenoxybenzyl α-(3,3-dichloroallyl)isovalerate] | 92
CC(C)(CC(=O)OCc1cccc(Oc2ccccc2)c1)C(Cl)C=C(Cl)Cl (stereo not drawn) [Compound [17], 3-Phenoxybenzyl β-(1,3,3-trichloroallyl)isovalerate] | 100

Same assay, conditions: direct sunlight between glass plates, 12° C., 8 hrs., relative to aluminum foil-covered control; read-out: Residue (%) Exposure time 8 hrs.

Compound | remaining at 8 h [%]
CC(C)(CC(=O)OC(C#N)c1cccc(Oc2ccccc2)c1)C(Cl)C=C(Cl)Cl (stereo not drawn) [Compound [18], α-Cyano-3-phenoxybenzyl β-(1,3,3-trichloroallyl)isovalerate] | 97
C#CC(OC(=O)CC(C)(C)C(Cl)C=C(Cl)Cl)c1cccc(Oc2ccccc2)c1 (stereo not drawn) [Compound [19], α-Ethynyl-3-phenoxybenzyl β-(1,3,3-trichloroallyl)isovalerate] | 92
CC(C)C(CC=C(Cl)Cl)C(=O)OCc1cccc(Oc2ccccc2)c1 (stereo not drawn) [Compound [5], 3-Phenoxybenzyl α-(3,3-dichloroallyl)isovalerate] | 98
C#CC(OC(=O)C(CC=C(Cl)Cl)C(C)C)c1cccc(Oc2ccccc2)c1 (stereo not drawn) [Compound [7], α-Ethynyl-3-phenoxybenzyl α-(3,3-dichloroallyl)isovalerate] | 96
CC(C)C(CC=C(Cl)Cl)C(=O)OC(C#N)c1cccc(Oc2ccccc2)c1 (stereo not drawn) [Compound [6], α-Cyano-3-phenoxybenzyl α-(3,3-dichloroallyl)isovalerate] | 92
CC(C)(CC(=O)OCc1cccc(Oc2ccccc2)c1)C(Cl)C=C(Cl)Cl (stereo not drawn) [Compound [17], 3-Phenoxybenzyl β-(1,3,3-trichloroallyl)isovalerate] | 100

Test system: not listed separately
Assay: Hydrolysis resistance test (Test Example 5)
Format: physicochemical
Details: acetone/water, reflux for 2 days; read-out: Residue (%)
Protocol: Into about 8 ml of acetone were dissolved 100 mg of each test compound and, then, 1.0 g of water was added to this solution to prepare a mixed solution. This mixed solution was refluxed for 2 days. After concentration to about one half of the original volume and with the addition of dioctyl phthalate as an internal reference, the residual amount of the compound was determined by high-speed liquid chromatography. The residue (%) was then calculated.

Compound | remaining at 48 h [%]
CC(C)(CC(=O)OC(C#N)c1cccc(Oc2ccccc2)c1)C(Cl)C=C(Cl)Cl (stereo not drawn) [Compound [18], α-Cyano-3-phenoxybenzyl β-(1,3,3-trichloroallyl)isovalerate] | > 90
C#CC(OC(=O)C(CC=C(Cl)Cl)C(C)C)c1cccc(Oc2ccccc2)c1 (stereo not drawn) [Compound [7], α-Ethynyl-3-phenoxybenzyl α-(3,3-dichloroallyl)isovalerate] | > 90
CC(C)C(CC=C(Cl)Cl)C(=O)OC(C#N)c1cccc(Oc2ccccc2)c1 (stereo not drawn) [Compound [6], α-Cyano-3-phenoxybenzyl α-(3,3-dichloroallyl)isovalerate] | > 90

Test system: green rice leafhoppers
Assay: Spray test on rice seedlings against green rice leafhoppers (Utility Example 1)
Format: in vivo, green rice leafhoppers (Nephotettix cincticeps)
Details: 30% emulsifiable concentrate (Formulation Example 5) diluted 300-fold, 10 ml/pot, 24 hours
Protocol: To 30 parts of each of Compounds [1], [2], [5] to [13] and [17] to [19] was added 50 parts of xylene and 20 parts of Sorpol SM-200 (a surfactant, trademark of Toho Chemical Co., Ltd.). The mixture was stirred well and dissolved to obtain a 30% emulsifiable concentrate.
The emulsifiable concentrate prepared from Compounds [1], [2], [6], [7], [9], [10], [12] and [13] in Formulation Example 5 were each diluted 300-fold with water. Then, each of the dilutions was sprayed over rice seedlings 25 days after sowing at the rate of 10 ml/pot. The pot was covered with a wire-net and 15 green rice leafhoppers were released under the net. After 24 hours, the leafhoppers were examined for deaths. The mortality (%) was not less than 90% for each of Compounds [1], [2], [6], [7], [9], [10], [12] and [13].

Compound | Mortality (%)
C#CC(OC(=O)C(CC=C(Cl)Cl)C(C)C)c1cccc(Oc2ccccc2)c1 (stereo not drawn) [Compound [7], α-Ethynyl-3-phenoxybenzyl α-(3,3-dichloroallyl)isovalerate] | not less than 90%
CC(C)C(CC=C(Cl)Cl)C(=O)OC(C#N)c1cccc(Oc2ccccc2)c1 (stereo not drawn) [Compound [6], α-Cyano-3-phenoxybenzyl α-(3,3-dichloroallyl)isovalerate] | not less than 90%
CC(C)C(CC=C(Br)Br)C(=O)OC(C#N)c1cccc(Oc2ccccc2)c1 (stereo not drawn) [Compound [9], α-Cyano-3-phenoxybenzyl α-(3,3-dibromoallyl)isovalerate] | not less than 90%

Test system: houseflies
Assay: Settling mist mortality test against houseflies, oil preparations of Formulation Example 2 (Utility Example 3)
Format: in vivo, houseflies (Musca domestica)
Details: oil preparation with 0.1 part compound and 0.1 part resmethrin per 100 parts, 24 hours
Protocol: To 0.1 part of each of Compounds [1] to [17] was added 0.1 part of resmethrin, followed by the addition of a sufficient amount of kerosene to make 100 parts. The mixture was stirred to obtain an oil preparation of each compound.
(§1) By the settling mist method, a mortality test against houseflies was carried out using the oil preparations made in Formulation Example 2 from Compounds [1], [2], [5] to [11] and [17]. After 24 hours, the flies were examined for deaths. The mortality (%) was not less than 90% for each of Compounds [1], [2], [5] to [11] and [17].

Compound | Mortality (%)
CC(C)(CC(=O)OCc1cccc(Oc2ccccc2)c1)C(Cl)C=C(Cl)Cl (stereo not drawn) [Compound [17], 3-Phenoxybenzyl β-(1,3,3-trichloroallyl)isovalerate] | not less than 90%

Test system: house-flies
Assay: Settling mist mortality test against houseflies, oil preparations of Formulation Example 3 (Utility Example 4)
Format: in vivo, houseflies (Musca domestica)
Details: oil preparation with 0.1 part compound and 0.08 part permethrin per 100 parts, 24 hours
Protocol: To 0.1 part of each of Compounds [1] to [28] was added 0.08 part of permethrin, followed by the addition of a sufficient amount of kerosene to make 100 parts. The mixture was stirred to obtain an oil preparation of each compound.
as §1, with “against house-flies” for “against houseflies”, “preparations obtained” for “preparations made”, “Example 3” for “Example 2”

Compound | Mortality (%)
CC(C)(CC(=O)OCc1cccc(Oc2ccccc2)c1)C(Cl)C=C(Cl)Cl (stereo not drawn) [Compound [17], 3-Phenoxybenzyl β-(1,3,3-trichloroallyl)isovalerate] | not less than 90%
